The record followed here is patent US20260265262A1, “CDK2 INHIBITORS AND METHODS OF USING THE SAME” (Cedilla Therapeutics, Inc., priority 2022, published 2026).

Assay [1] has as its system Kuramochi cells. Kind of assay: IncuCyte cell proliferation assay. In kind it is cell-based. The note with it: Kuramochi cells labeled with mApple-H2B, cell count 0 to 72 hours, 20 μM top concentration; read-out: IncuCyte Kuramochi RB-WT: IC50. As for the experimental part:
IncuCyte® assay was used to measure the effect of disclosed compounds on cell proliferation. Fluorescent microscopy images of cells were taken immediately after compound treatment and 72 hours later. Image analysis software was used to obtain cell counts as a function of compound concentration. Kuramochi cells labeled with mApple-H2B were seeded on 384-well assay-ready plates. Plates were placed in an IncuCyte® (Sartorius) and scanned at 0 and 72 hours. IncuCyte® software was used to count the number of fluorescent nuclei in each well. The fold change in cell count from 0 to 72 hours in wells treated with increasing compounds concentrations (10 pts, 1/2 log dilution, 20 μM top concentration) was normalized to DMSO control wells. The normalized cell counts were fit with dose response curves and a […] was calculated.

For assay [2], the target named is CDK2/Cyclin E1 (Homo sapiens, UniProt P24941). Kind of assay: ADP-Glo Luminescent Kinase Assay (CDK2/E1-37C). It is filed as biochemical. The note with it: 0.18 nM CDK2/Cyclin E1, 100 μM ATP, 1.5 μM Histone H1, 37° C., 60 min pre-incubation; read-out: ADPGLO (CDK2/E1-37C): IC50. As for the experimental part: Inhibition of CDK2/Cyclin E1 activity by the presence of small molecules was evaluated using ADP-Glo Luminescent Kinase Assay (Promega). Activated CDK2/Cyclin E1 was incubated with its substrate Histone H1 (SignalChem H10-54N) in the kinase reaction buffer (100 μM ATP, 50 mM HEPES pH 7.5, 10 mM MgCl2, 1 mM EDTA, 2 mM DTT, 0.01% Brij35, 0.5 mg/mL BSA). Luminescence was recorded with an Envision plate reader (PerkinElmer).
Dose titrations of inhibitors in 100% DMSO were combined with 0.36 nM CDK2/Cyclin E1 in reaction buffer. The mixtures were incubated for 60 minutes at 37° C. before the addition of ATP and Histone H1 substrate to initiate the kinase reaction. The final conditions were 0.18 nM CDK2/Cyclin E1, 100 μM ATP, and 1.5 μM Histone H1. The reactions were incubated at 37° C. for 90 minutes before being stopped with the addition of ADP-Glo reagent. This mixture was incubated at room temperature for 60 minutes before Kinase Detection Solution is added to generate luminescence. The stopped reactions were analyzed on an Envision plate reader. The conversion ratios were normalized to yield % activity, plotted against compound concentration, and fit to a four-parameter equation to determine the IC50 for each compound.
(In general: ADP-Glo first removes unused ATP, then detects ADP through luciferase.)

For `C[C@@H](OCC12CCC(CC1)OC2)[C@H](NC(=O)[C@@H]1CN(C(=O)c2cnn(Cc3ccccc3C(=O)OC(C)(C)C)c2)CC12CN(C(=O)C1(C(F)(F)F)CC1)C2)C(=O)N1CCN(C(=O)OC(C)(C)C)CC1` [Example I-108], the IC50 is 0.5 to 5 µM in assay [1] and less than 0.5 µM in assay [2].
For `C[C@@H](OCC1CCCCC1)[C@H](NC(=O)[C@@H]1CN(C(=O)c2cnn(CC3CCCCC3)c2)CC12CN(C(=O)[C@H]1CC1(C)C)C2)C(=O)N1CCC(c2ccc(C(=O)O)cc2)CC1` [Example I-30, 4-(1-(O-(cyclohexylmethyl)-N—((S)-6-(1-(cyclohexylmethyl)-1H-pyrazole-4-carbonyl)-2-((S)-2,2-dimethylcyclopropane-1-carbonyl)-2,6-diazaspiro[3.4]octane-8-carbonyl)-L-threonyl)piperidin-4-yl)benzoic acid], in that order: 0.5 to 5 µM and less than 0.5 µM.
As to `COC(=O)CCNC(=O)[C@@H](NC(=O)[C@@H]1CN(C(=O)c2cnn(Cc3ccc(C(F)(F)F)cc3)c2)CC12CN(C(=O)C1(C(F)(F)F)CC1)C2)[C@@H](C)OCC12CCC(CC1)OC2` [Example I-84], the IC50 was less than 0.5 µM in assay [1] and 0.5 to 5 µM in assay [2].
As to `C[C@@H](OCC12CCC(CC1)OC2)[C@H](NC(=O)[C@@H]1CN(C(=O)c2cnc(O)cn2)CC12CN(C(=O)C1CC1(C)C)C2)C(=O)N1CCC(c2ccc(C(F)(F)F)c(C(=O)O)c2)CC1` (stereo partly drawn) [Example I-90, 5-(1-(O-((2-oxabicyclo[2.2.2]octan-4-yl)methyl)-n-((s)-2-((s)-2,2-dimethylcyclopropane-1-carbonyl)-6-(5-hydroxypyrazine-2-carbonyl)-2,6-diazaspiro[3.4]octane-8-carbonyl)-L-threonyl)piperidin-4-yl)-2-(trifluoromethyl)benzoic acid], the results for the IC50 in assay [1] and in assay [2] were more than 20 µM and less than 0.5 µM, respectively.
Consider `COC(=O)c1ccccc1C1CCN(C(=O)[C@@H](NC(=O)[C@@H]2CN(C(=O)c3cnn(Cc4ccc(C(F)(F)F)cc4)c3)CC23CN(C(=O)C2(C(F)(F)F)CC2)C3)[C@@H](C)OCC23CCC(CC2)OC3)CC1` [Example I-11, methyl 2-(1-(O-((2-oxabicyclo[2.2.2]octan-4-yl)methyl)-N—((S)-6-(1-(4-(trifluoromethyl)benzyl)-1H-pyrazole-4-carbonyl)-2-(1-(trifluoromethyl)cyclopropane-1-carbonyl)-2,6-diazaspiro[3.4]octane-8-carbonyl)-L-threonyl)piperidin-4-yl)benzoate], for which the figures for the IC50 in assay [1] and in assay [2] were 0.5 to 5 µM and less than 0.5 µM, respectively.
With `COC(=O)c1ccc([C@H](COCC23CCC(CC2)OC3)NC(=O)C2CN(C(=O)c3cnn(Cc4ccc(C#N)cc4)c3)CC23CN(C(=O)C2(C(F)(F)F)CC2)C3)cc1` (stereo partly drawn) [Example I-24, methyl 4-((1R)-2-((2-oxabicyclo[2.2.2]octan-4-yl)methoxy)-1-(6-(1-(4-cyanobenzyl)-1H-pyrazole-4-carbonyl)-2-(1-(trifluoromethyl)cyclopropane-1-carbonyl)-2,6-diazaspiro[3.4]octane-8-carboxamido)ethyl)benzoate], the IC50 in assay [1] is more than 20 µM; in assay [2] it was 5 to 10 µM.
In the case of `CC1(C)C[C@@H]1C(=O)N1CC2(CN(C(=O)c3cncs3)C[C@H]2C(=O)N2CCC[C@H](N(CC(=O)NS(C)(=O)=O)CC3CCCCC3)C2)C1` [Example I-72, 2-((cyclohexylmethyl)((S)-1-((S)-2-((S)-2,2-dimethylcyclopropane-1-carbonyl)-6-(thiazole-5-carbonyl)-2,6-diazaspiro[3.4]octane-8-carbonyl)piperidin-3-yl)amino)-N-(methylsulfonyl)acetamide], the values for the IC50 in assay [1] and in assay [2] were more than 20 µM and more than 10 µM, respectively.
With `C[C@@H](OCC12CCC(CC1)OC2)[C@H](NC(=O)[C@@H]1CN(C(=O)c2cnn(Cc3ccccc3C(=O)O)c2)CC12CN(C(=O)C1(C(F)(F)F)CC1)C2)C(=O)N1CCN(Cc2ccc(C(F)(F)F)cc2)CC1` [Example I-14, 2-((4-((S)-8-(((2S,3R)-3-((2-oxabicyclo[2.2.2]octan-4-yl)methoxy)-1-oxo-1-(4-(4-(trifluoromethyl)benzyl)piperazin-1-yl)butan-2-yl)carbamoyl)-2-(1-(trifluoromethyl)cyclopropane-1-carbonyl)-2,6-diazaspiro[3.4]octane-6-carbonyl)-1H-pyrazol-1-yl)methyl)benzoic acid], the IC50 in assay [1] is more than 20 µM; in assay [2] it was less than 0.5 µM.
With `C[C@@H](OCC12CCC(CC1)OC2)[C@H](NC(=O)[C@@H]1CN(C(=O)c2cnn(Cc3ccccc3C(=O)O)c2)CC12CN(C(=O)C1(C(F)(F)F)CC1)C2)C(=O)N1CCNC2(CC2)C1` [Example I-112, 2-((4-((S)-8-(((2S,3R)-3-((2-oxabicyclo[2.2.2]octan-4-yl)methoxy)-1-oxo-1-(4,7-diazaspiro[2.5]octan-7-yl)butan-2-yl)carbamoyl)-2-(1-(trifluoromethyl)cyclopropane-1-carbonyl)-2,6-diazaspiro[3.4]octane-6-carbonyl)-1H-pyrazol-1-yl)methyl)benzoic acid], the results for the IC50 in assay [1] and in assay [2] were more than 20 µM and less than 0.5 µM, respectively.
For `CC1(C)C[C@@H]1C(=O)N1CC2(CN(C(=O)c3cncs3)C[C@H]2C(=O)N2CCN(CC3CCCCC3)C(CC(=O)O)C2)C1` (stereo partly drawn) [Example I-6, 2-(1-(cyclohexylmethyl)-4-((S)-2-((S)-2,2-dimethylcyclopropane-1-carbonyl)-6-(thiazole-5-carbonyl)-2,6-diazaspiro[3.4]octane-8-carbonyl)piperazin-2-yl)acetic acid], in that order: more than 20 µM and more than 10 µM.
For `Cc1cc(C2CCN(C(=O)[C@@H](NC(=O)[C@@H]3CN(C(=O)c4cnn(Cc5ccc(C(F)(F)F)cc5)c4)CC34CN(C(=O)C3(C(F)(F)F)CC3)C4)[C@@H](C)OCC34CCC(CC3)OC4)CC2)cc(C(F)(F)F)c1OCC(=O)O` [Example I-104], in that order: more than 20 µM and less than 0.5 µM.
As for `C[C@@H](OCC1CCCCC1)[C@H](NC(=O)[C@@H]1CN(C(=O)c2cnn(Cc3ccccc3)c2)CC12CN(C(=O)[C@H]1CC1(C)C)C2)C(=O)NS(=O)(=O)c1ccc(F)cc1F` [Example I-26, (S)-6-(1-benzyl-1H-pyrazole-4-carbonyl)-N-((2S,3R)-3-(cyclohexylmethoxy)-1-((2,4-difluorophenyl)sulfonamido)-1-oxobutan-2-yl)-2-((S)-2,2-dimethylcyclopropane-1-carbonyl)-2,6-diazaspiro[3.4]octane-8-carboxamide], the IC50 is 0.5 to 5 µM in assay [1] and less than 0.5 µM in assay [2].
Take `C[C@@H](OCC12CCC(CC1)OC2)[C@H](NC(=O)[C@H]1CN(C(=O)c2cnc(O)cn2)CC12CN(C(=O)C1(C(F)(F)F)CC1)C2)C(=O)N1CCC(c2ccc(C(=O)O)c(C(F)(F)F)c2)CC1` (single isomer, unassigned) [I-89 2nd, 4-(1-(O-((2-oxabicyclo[2.2.2]octan-4-yl)methyl)-N-(6-(5-hydroxypyrazine-2-carbonyl)-2-(1-(trifluoromethyl)cyclopropane-1-carbonyl)-2,6-diazaspiro[3.4]octane-8-carbonyl)-L-threonyl)piperidin-4-yl)-2-(trifluoromethyl)benzoic acid]: the figures for the IC50 in assay [1] and in assay [2] were more than 20 µM and 0.5 to 5 µM, respectively.
For `CCCN1CCC2(CC1)CCN(C(=O)C(NC(=O)C1CN(C(=O)c3cnn(Cc4ccccc4C(=O)O)c3)CC13CN(C(=O)C1(C(F)(F)F)CC1)C3)C(C)OCC13CCC(CC1)OC3)CC2` (stereo not shown) [Example I-115], the IC50 in assay [1] is more than 20 µM; in assay [2], less than 0.5 µM.
